These results are taken from patent publication US9643953B2, “Substituted benzylpyrazoles” (Bayer Intellectual Property GmbH, priority 2011, dated 2017).

pIC50: −log10 of the molar value.

One experiment concerns H460 cell line. As to the kind of experiment: Proliferation assay (H460 cell line). Conditions: Homo sapiens, NCI-H460, 96 h, read-out: Biological Assay 2: Proliferation assay (H460 cell line) median IC50.
For the next experiment, the system named is DU145 cell line. Nature of the experiment: Proliferation assay (DU145 cell line). Conditions: Homo sapiens, DU-145, 96 h, read-out: Biological Assay 2: Proliferation assay (DU145 cell line) median IC50.
For experiment [1], the target named is T1, catalytic domain of human Bub1 (amino acids 704-1085) (Homo sapiens, UniProt O43683).
T1 construct: catalytic domain of human Bub1 (amino acids 704-1085); His6 (N); made in house; host or cells: Hi5 insect cells
As to the kind of experiment: Bub1 kinase assay (TR-FRET). It counts as biochemical. Conditions: Biological Assay 1: Bub1 kinase assay median IC50, TR-FRET, ATP 10 μM, peptide substrate 1 μM, 60 min at 22° C. As to the method: To this end, 100-fold concentrated compound solutions (in DMSO) were previously prepared by serial dilution (1:3.4) of 2 mM stocks in a clear low volume 384-well source microtiter plate (Greiner Bio-One, Frickenhausen, Germany), from which 50 nl of compounds were transferred into a black low volume test microtiter plate from the same supplier. […] The resulting mixture (5 μl final volume) was incubated at 22° C. during 60 min., and the reaction was stopped by the addition of 5 μl of an aqueous EDTA-solution (50 mM EDTA, in 100 mM HEPES pH 7.5 and 0.2% (w/v) bovine serum albumin) which also contained the TR-FRET detection reagents (0.2 μM streptavidin-XL665 [Cisbio Bioassays, Codolet, France] and 1 nM anti-phosho-Serine antibody [Merck Millipore, cat. #35-001] and 0.4 nM LANCE EU-W1024 labeled anti-mouse IgG antibody [Perkin-Elmer, product no. AD0077, alternatively a Terbium-cryptate-labeled anti-mouse IgG antibody from Cisbio Bioassays can be used]). The stopped reaction mixture was further incubated 1 h at 22° C. in order to allow the formation of complexes between peptides and detection reagents. Subsequently, the amount of product was evaluated by measurement of the resonance energy transfer from the Eu-chelate-antibody complex recognizing the Phosphoserine residue to the streptavidin-XL665 bound to the biotin moiety of the peptide. […] IC50 values were calculated by fitting the normalized inhibition data to a 4-parameter logistic equation (Minimum, Maximum, IC50, Hill; Y=Max+(Min−Max)/(1+(X/IC50)Hill)).

A further experiment concerns HeLa cell line. Nature of the experiment: Proliferation assay (HeLa cell line).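 Also: crystal violet staining of cell number, absorbance read at 595 nm, compounds tested at 0.001–10 µM, zero-point plate taken as 0% and untreated cells as 100%, four-parameter fit.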 As to conditions: Homo sapiens, HeLa, 96 h, read-out: Biological Assay 2: Proliferation assay (HeLa cell line) median IC50.
Another experiment has as its system Caco2 cell line. Nature of the experiment: Proliferation assay (Caco2 cell line). As to conditions: Homo sapiens, Caco-2, 96 h, read-out: Biological Assay 2: Proliferation assay (Caco2 cell line) median IC50.
The subject of the next experiment is HeLa-MaTu-ADR cell line. As to the kind of experiment: Proliferation assay (HeLa-MaTu-ADR cell line). Conditions: 96 h, read-out: Biological Assay 2: Proliferation assay (HeLa-MaTu-ADR cell line) median IC50.
A further experiment relates to B16F10 cell line. Nature of the experiment: Proliferation assay (B16F10 cell line). As to conditions: Mus musculus, B16-F10, 96 h, read-out: Biological Assay 2: Proliferation assay (B16F10 cell line) median IC50.

T1 sequence (O43683 704-1085): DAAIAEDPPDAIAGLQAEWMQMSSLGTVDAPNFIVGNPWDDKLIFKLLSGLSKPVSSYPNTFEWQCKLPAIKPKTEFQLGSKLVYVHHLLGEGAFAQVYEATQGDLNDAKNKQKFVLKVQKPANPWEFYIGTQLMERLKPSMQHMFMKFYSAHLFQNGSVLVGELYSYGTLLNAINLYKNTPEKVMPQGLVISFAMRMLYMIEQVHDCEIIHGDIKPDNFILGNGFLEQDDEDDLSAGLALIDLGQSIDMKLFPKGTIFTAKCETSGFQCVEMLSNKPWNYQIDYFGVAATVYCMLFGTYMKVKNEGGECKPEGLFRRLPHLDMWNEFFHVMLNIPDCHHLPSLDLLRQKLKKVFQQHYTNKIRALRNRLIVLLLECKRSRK
Experimental for B16F10 cell line: (§1) Cultivated tumor cells (cells were ordered from ATCC, except HeLa-MaTu and HeLa-MaTu-ADR, which were ordered from EPO-GmbH, Berlin) were plated at a density of 1000 to 5000 cells/well, depending on the growth rate of the respective cell line, in a 96-well multititer plate in 200 μL of their respective growth medium supplemented 10% fetal calf serum. After 24 hours, the cells of one plate (zero-point plate) were stained with crystal violet (see below), while the medium of the other plates was replaced by fresh culture medium (200 μl), to which the test substances were added in various concentrations (0 μM, as well as in the range of 0.001-10 μM; the final concentration of the solvent dimethyl sulfoxide was 0.5%). The cells were incubated for 4 days in the presence of test substances. Cell proliferation was determined by staining the cells with crystal violet: the cells were fixed by adding 20 μl/measuring point of an 11% glutaric aldehyde solution for 15 minutes at room temperature. After three washing cycles of the fixed cells with water, the plates were dried at room temperature. The cells were stained by adding 100 μl/measuring point of a 0.1% crystal violet solution (pH 3.0). After three washing cycles of the stained cells with water, the plates were dried at room temperature. The dye was dissolved by adding 100 μl/measuring point of a 10% acetic acid solution. Absorption was determined by photometry at a wavelength of 595 nm. The change of cell number, in percent, was calculated by normalization of the measured values to the absorption values of the zero-point plate (=0%) and the absorption of the untreated (0 μm) cells (=100%). The IC50 values were determined by means of a 4 parameter fit.
Experimental for Caco2 cell line: as §1
Experimental for DU145 cell line: as §1
Experimental for H460 cell line: as §1
Experimental for HeLa cell line: as §1
Experimental for HeLa-MaTu-ADR cell line: as §1

As for `CCOc1cc(F)c(Cn2nc(-c3ncc(OCCCS(C)(=O)=O)c(Nc4ccncc4)n3)c(C)c2C2CC2)c(F)c1` [Example 2-3-10, 2-[5-cyclopropyl-1-(4-ethoxy-2,6-difluorobenzyl)-4-methyl-1H-pyrazol-3-yl]-5-[3-(methylsulfonyl)propoxy]-N-(pyridin-4-yl)pyrimidin-4-amine], the pIC50 in the experiment on H460 cell line was 5.81; in the experiment with DU145 cell line it was 5.79; in experiment [1] it was 8.02; in the experiment with HeLa cell line it was 5.95; in the experiment on Caco2 cell line, 5.85; with HeLa-MaTu-ADR cell line, 6.12. In the experiment with B16F10 cell line, the pIC50 was 5.93.
